“Also recorded” adds a separate entry of the source. Read-outs that look alike come from different tables or passages of the source.
Columns and labels:
PG formation = conditions: cited from earlier work
Sjogren's syndrome = conditions: vitamin C 7.5 g/day for a year; person
Protocol: Associated with these disorders were brittle, frequently cracking nails and hypersensitivity of the hands to soaps and detergents. […] 50 mg/day pyridoxine (desirable for normal EFA metabolism) and 6×0.6 ml Evening Primrose oil capsules per day were added to the regime.

NZB/W mouse = assay: NZB/W mouse, animal model for Sjogren's syndrome; type: in vivo
[1] = system: conversion of DGLA to 1 series PGs (human platelets); assay: tissue or blood; type: cell-based; conditions: for activity at 0.018 µg/mL / activity at 18 µg/mL: Homo sapiens, Platelet; for effect on formation of 1 series PGs from DGLA: human platelets; for behaviour of treated normal platelets (PGE1 from DGLA): normal platelets compared with schizophrenic platelets
Protocol: (§1) The method is given in detail later herein but briefly human platelets are incubated with radioactive DGLA or arachidonic acid. The PGs produced during incubation are extracted by conventional means and separated by thin layer chromatography, and the amount of radioactivity appearing in each PG or related substance is counted. PGE 1, PGF 1α and thromboxane B1 from DGLA, and PGE 2, PGF 2α and thromboxane B2 from AA are estimated.
(§2) One day expired (2 days old) human platelets were obtained and used within 48 hours of expiration. One unit was centrifuged at 1000 g for 15 minutes and the supernatent drawn off. The platelet pellet was resuspended in Tris-NaCl-EDTA buffer, made up of 0.15 M NaCl, 0.15 M Tris HCl at pH 7.4 and 0.077 M NaEDTA (90:8:2 v/v/v). The platelets were recentrifuged, the supernatant removed and the pellet resuspended in Krebs-Henseleit buffer (without calcium) at pH 7.4. The washed platelets suspension contained about 1-2% red blood cells. All glassware used in the preparation of the platelets was siliconized.
Four equal sized 1 ml aliquots of the platelet suspension, containing 10^9 platelets/ml were incubated with e.g. 0.5 μCi ^14 C-DGLA for five minutes. At the beginning of the incubation the material under test was added to the suspensions. The reaction was stopped after five minutes by addition of 1/10 volume of 10% formic acid. The suspension was then extracted three times with ethyl acetate and the fractions pooled and dried under vacuum. The extract was then taken up with 5 ml chloroform/methanol (2/1, v/v). Recovery of radioactive material in the extract was checked by taking 50 μl of the chloroform/methanol and counting by liquid scintillation.
The chloroform/methanol extract was then reduced in volume to 1 ml under dry prepurified nitrogen. Thin layer chromatography was carried out on 500 μg precoated, prescored silica gel G Uniplates (Analtech). Plates were activated by heating to 100° C. for 1 hour immediately prior to use. The solvent system was chloroform:methanol:acetic acid:water (90:8:1:0:8). Reference compounds (PGsE1 and F1α and thromboxane B1) were run at the same time and visualized by phosphomolybdic acid spray followed by brief heating. The bands on the plates corresponding to the reference PGE1, PFG1α and TXB1 were scraped off and eluted with 20 ml acetone. Each elution was then evaporated to dryness and counted by liquid scintillation (Beckman 100 LS counter).
Three experiments were performed with DGLA and three with AA.

[2] = system: conversion of AA to 2 series PGs (human platelets); type: cell-based
Protocol: as §1, §2
Four equal sized 1 ml aliquots of the platelet suspension, containing 10^9 platelets/ml were incubated with e.g. 0.5 μCi ^14 C-DGLA for five minutes. […]
The chloroform/methanol extract was then reduced in volume to 1 ml under dry prepurified nitrogen. […] Each elution was then evaporated to dryness and counted by liquid scintillation (Beckman 100 LS counter). […]

opiate receptor = conditions: cited from earlier work
[3] = cited from earlier work
[4] = read-out: PGE1 formation (precursor DGLA), percentage of control counts
[5] = read-out: TXB1 formation (precursor DGLA), percentage of control counts

O=C1O[C@H]([C@@H](O)CO)C(O)=C1O [Vitamin C, ascorbic acid]
effect on PG formation (PG formation; high concentrations of vitamin C, reports in the literature): both enhancing and reducing PG formation
effect on well-being, dry eyes and mouth (Sjogren's syndrome): subjective sense of well-being and some slight improvement in the dry eyes and mouth

CCCCC/C=C\C/C=C\C/C=C\CCCCC(=O)O [γ-linolenic acid]
effect on immunological abnormalities of the strain (NZB/W mouse): can correct many of the immunological abnormalities of the strain

CN1CC[C@]23CCCC[C@H]2[C@H]1Cc1ccc(O)cc13 [l-levorphanol]
activity at 0.018 µg/mL [1, 4]: 23%
activity at 18 µg/mL [1, 4]: 72%
activity at 0.018 µg/mL [1, 5]: 20%
activity at 18 µg/mL [1, 5]: 76%
effect on formation of 1 series PGs from DGLA [1]: reduced formation of 1-series PGs; also recorded: able to block the formation of 1 series PGs from DGLA
effect on conversion of DGLA to PGE1 ([1]; l-levorphanol 100 μg/ml): inhibiting conversion of DGLA to PGE1
behaviour of treated normal platelets (PGE1 from DGLA) [1]: behave like schizophrenic platelets
imitation of schizophrenic defect of conversion of DGLA to PGE1 in normal platelets ([1]; normal platelets incubated with l-levorphanol): can be limited in normal platelets by incubation with l-levorphanol
effect on formation of 2 series PGs from AA [2]: no effect on production of 2-series PGs from AA; also recorded: without blocking the formation of 2 series PGs from AA
binding to and activation of the opiate receptor (opiate receptor): binds to and activates the opiate receptor

β-endorphin: natural opioid (YGGFMTSEKSQTPLVTLFKNAIIKNAYKKGE; Beta-endorphin; UniProt P01189 237-267, looked up)
effect on formation of 1 series PGs from DGLA [1]: effect similar to levorphanol
behaviour of treated normal platelets (PGE1 from DGLA) [1]: behave like schizophrenic platelets

CCCCC[C@H](O)/C=C/[C@H]1[C@H](O)CC(=O)[C@@H]1CCCCCCC(=O)O [PGE1]
effect on immunological abnormalities of the strain (NZB/W mouse): can correct many of the immunological abnormalities of the strain

CN1CC[C@@]23CCCC[C@@H]2[C@@H]1Cc1ccc(O)cc13 [d-levorphanol]
effect on conversion of DGLA to PGE1 ([1]; d-isomer of levorphanol): no such effect
effect on formation of 1 series PGs from DGLA [1]: not shown by d-levorphanol
binding to and activation of the opiate receptor (opiate receptor): does not
binding to and activation of the opiate receptor (opiate receptor; listed as d-isomer of levorphanol): devoid of opiate activity

CCO [Ethyl alcohol, ethyl alcohol]
concentration of alcohol in human plasma at which signs of mild intoxication first appear ([3]; human plasma): 20-30 mg %
concentration which produces "blind drunkenness" ([3]; in vivo): 300 mg %
effect on formation of thromboxane B2 (PG formation; extremely high levels of ethanol, conversion of AA): can block the formation of thromboxane B2

— patent USRE31836E, “Pharmaceutical and dietary composition” (priority 1984, dated 1985)
